In patent publication US10244759B2, “Use of forchlorfenuron for promoting plant growth” (KIM-C1 LLC, priority 2013, dated 2019):
Entries after “also recorded” stand apart in the source; their conditions may differ.

Assays:
[1] = system: cotton (G. hirsutum, FiberMax 9058); assay: Cotton seedling spray, lateral root development and phytotoxicity (Example 2); format: in vivo, Gossypium hirsutum; settings: seedlings sprayed 6 days after planting
Procedure: Commercial cotton seed (G. hirsutum, FiberMax 9058, Bayer CropScience) was planted in conetainers and grown for 6 days prior to spraying with a range of forchlorfenuron concentrations. The plants were grown an additional 5 days prior to washing out the roots. Initial concentrations (0, 5, 10, 15, 20, 25, 50, 100, 250, 500, 1000, and 2000 ppm) were evaluated.

[2] = system: cotton seeds (G. hirsutum, FiberMax 9058); assay: Cotton seed soak, lateral root development (Example 1); format: in vivo, Gossypium hirsutum
Source text: Commercial cotton seeds (G. hirsutum, FiberMax 9058, Bayer CropScience) were submerged in tubs containing forchlorfenuron at concentrations of 0, 25, 50, 100, 250, 500, 1000, 4000 and 8000 ppm for 10 seconds. The seeds were then placed on paper towels on the lab bench and allowed to air dry. Six days after the seed soak, the seeds were planted in “conetainers” and placed in a greenhouse for one week. The soil was removed from the conetainer and the roots were washed by gently dipping the soil into a bucket of water. Roots were photographed and evaluated for lateral root development.

[3] = pH range; cited from earlier work
[4] = cited from earlier work
[5] = system: Cotton plants (G. hirsutum, FiberMax 9180 B2F); assay: Cotton yield enhancement under abiotic and biotic stresses, boll count (Example 3); format: in vivo, Gossypium hirsutum; settings: for number bolls: at harvest; for % increase over control: number bolls
Procedure: Cotton plants grown from commercial cotton seeds (G. hirsutum, FiberMax 9180 […], Bayer CropScience) were treated with forchlorfenuron at various stages of growth. […] Control plants were not treated at any stage of growth. At the time of harvest, cotton bolls on all plants were counted, and the percentages of bolls that were open and closed were calculated.

[6] = system: Broccoli plants (B. oleracea, var. Waltham 29); assay: Broccoli root length, stem length and ratio thereof (Example 4); format: in vivo, Brassica oleracea; settings: for Root Length AB Spray / Root/Stem Ratio AB Spray / Shoot Length AB Spray / Root Length A Spray / Root/Shoot Ratio A Spray / Shoot Length A Spray: percentage of the untreated level, 60 days after planting
Procedure: Broccoli plants (B. oleracea, var. […] The root length and stem length were measured 60 days after planting and the ratio of root length to stem length was calculated for every plant.

Broccoli = Broccoli root dry weight after spray (Example 5); format: in vivo; settings: for root weight, Broccoli (AB spray) / root weight, Broccoli (A spray): dry weight 50 days after planting, untreated 0.69
Procedure: (§1) Plants were sprayed with 0, 2.5, 5, or 7.5 ppm forchlorfenuron, at the cotyledon growth stage in the case of broccoli or at stage 1 in the case of wheat (treatment A), and optionally again with 5 ppm forchlorfenuron three days thereafter (treatment B). The dry weights of the plant roots were measured 50 days after planting.

Winter wheat [7] = assay: Winter wheat seed treatment, root weight (Table 3); format: in vivo; settings: untreated 0.91
Winter wheat [8] = assay: Wheat root dry weight after spray (Example 5); format: in vivo; settings: dry weight 50 days after planting, untreated 0.85
Procedure: as §1

[9] = treating G. hirsutum seeds or plants
[10] = 1st square spray, 5 ppm, Day 41
[11] = 2.5 ppm ai at cotyledon stage + 5 ppm 3 days after
[12] = 5 ppm ai at cotyledon stage + 5 ppm 3 days after
[13] = 7.5 ppm ai at cotyledon stage + 5 ppm 3 days after

O=C(Nc1ccccc1)Nc1ccnc(Cl)c1 [forchlorfenuron, 1-(2-chloropyridin-4-yl)-3-phenylurea]
concentration with highest lateral root development ([1]; roots washed out 5 days later): 5 ppm | Severe phytotoxicity, application concentration ([1]; 0-2000 ppm tested): above 50 ppm | rooting patterns / lateral root lengths ([2]; seed treatment 250 ppm vs 0 ppm, eight plants per treatment (FIG. 1)): clear differences in rooting patterns; also recorded: increases in the lateral root lengths | concentration of optimal lateral root production ([2]; seeds submerged 10 seconds, 0-8000 ppm tested): 250 ppm | effect on lateral root development [2, 9]: increased lateral root development | stability [3]: stable across a wide pH range | solubility in water [4]: weakly soluble in water; also recorded: poorly soluble in water | % closed bolls [5, 10]: 56.7% | % open bolls [5, 10]: 43.3% | number bolls [5, 10]: 1096 | % closed bolls ([5]; Seed soak, 250 ppm on Day 1): 66.9% | % open bolls ([5]; Seed soak, 250 ppm on Day 1): 33.1% | number bolls ([5]; Seed soak, 250 ppm on Day 1): 1212 | number bolls ([5]; Seedling spray, 5 ppm at cotyledon-first leaf stage, Day 21): 1202 | % closed bolls ([5]; Seedling spray, 5 ppm, Day 21): 70.5% | % open bolls ([5]; Seedling spray, 5 ppm, Day 21): 29.5% | % increase over control [5, 10]: 1% | % increase over control ([5]; Seed soak, 250 ppm on Day 1): 12% | % increase over control ([5]; Seedling spray, 5 ppm, Day 21): 11% | effect on number of healthy cotton bolls per plant [5, 9]: increased the number of healthy cotton bolls per plant | Root Length AB Spray [6, 11]: 104.39% | Root/Stem Ratio AB Spray [6, 11]: 138.67% | Shoot Length AB Spray [6, 11]: 79.98% | Root Length A Spray ([6]; 2.5 ppm ai at cotyledon stage): 91.86% | Root/Shoot Ratio A Spray ([6]; 2.5 ppm ai at cotyledon stage): 94.53% | Shoot Length A Spray ([6]; 2.5 ppm ai at cotyledon stage): 95.25% | Root Length AB Spray [6, 12]: 97.39% | Root/Stem Ratio AB Spray [6, 12]: 124.29% | Shoot Length AB Spray [6, 12]: 90.62% | Root Length A Spray ([6]; 5 ppm ai at cotyledon stage): 100.6% | Root/Shoot Ratio A Spray ([6]; 5 ppm ai at cotyledon stage): 137.48% | Shoot Length A Spray ([6]; 5 ppm ai at cotyledon stage): 80.12% | Root Length AB Spray [6, 13]: 106.69% | Root/Stem Ratio AB Spray [6, 13]: 119.08% | Shoot Length AB Spray [6, 13]: 90.13% | Root Length A Spray ([6]; 7.5 ppm ai at cotyledon stage): 97.46% | Root/Shoot Ratio A Spray ([6]; 7.5 ppm ai at cotyledon stage): 105.16% | Shoot Length A Spray ([6]; 7.5 ppm ai at cotyledon stage): 91.78% | increase in the ratio of root length to stem length above the untreated level ([6]; Treatment A alone at 5 ppm): > 20% | effect on ratio of root length to stem length ([6]; moderate concentrations): increases the ratio of root length to stem length | increase in the ratio of root length to stem length above the untreated level ([6]; treatment A at 2.5 ppm together with treatment B): > 20% | increase in the ratio of root length to stem length above the untreated level ([6]; treatment A at 5 ppm together with treatment B): > 20% | root weight, Broccoli (AB spray) (Broccoli; [11]): 0.67 grams | root weight, Broccoli (A spray) (Broccoli; 2.5 ppm ai at cotyledon stage): 0.68 grams | root weight, Broccoli (AB spray) (Broccoli; [12]): 0.79 grams | root weight, Broccoli (A spray) (Broccoli; 5 ppm ai at cotyledon stage): 0.8 grams | root weight, Broccoli (AB spray) (Broccoli; [13]): 0.79 grams | root weight, Broccoli (A spray) (Broccoli; 7.5 ppm ai at cotyledon stage): 0.76 grams | increase in root weight above the untreated level (Broccoli; treatment A at 5 ppm, absence of treatment B): > 10% | increase in root weight above the untreated level (Broccoli; treatment A at 5 ppm, presence of treatment B): > 10% | increase in root weight above the untreated level (Broccoli; treatment A at 7.5 ppm, absence of treatment B): > 10% | increase in root weight above the untreated level (Broccoli; treatment A at 7.5 ppm, presence of treatment B): > 10% | root weight, Winter Wheat Seed Treat. (Winter wheat [7]; 2.5 ppm ai): 0.97 grams | root weight, Winter Wheat Seed Treat. (Winter wheat [7]; 5 ppm ai): 0.81 grams | root weight, Winter Wheat Seed Treat. (Winter wheat [7]; 7.5 ppm ai): 0.86 grams | root weight, Winter wheat (AB spray) (Winter wheat [8]; 2.5 ppm ai at stage 1 + 5 ppm 3 days after): 0.76 grams | root weight, Winter wheat (A spray) (Winter wheat [8]; 2.5 ppm ai at stage 1): 0.91 grams | root weight, Winter wheat (AB spray) (Winter wheat [8]; 5 ppm ai at stage 1 + 5 ppm 3 days after): 0.71 grams | root weight, Winter wheat (A spray) (Winter wheat [8]; 5 ppm ai at stage 1): 0.69 grams | root weight, Winter wheat (AB spray) (Winter wheat [8]; 7.5 ppm ai at stage 1 + 5 ppm 3 days after): 0.87 grams | root weight, Winter wheat (A spray) (Winter wheat [8]; 7.5 ppm ai at stage 1): 0.72 grams
